In patent US4666897A, “Inhibition of mammalian collagenolytic enzymes by tetracyclines” (Research Foundation of State University, priority 1983, dated 1987):

Assays:
[1] = tested on: GCF collagenase and gingival disease in non-diabetic male; assay: Human GCF study, non-diabetic; assay type: in vivo
Experimental: In a separate study involving humans, gingival crevicular fluid (GCF) samples were collected on filter paper strips inserted into 8 interproximal pockets of selected teeth in the maxillary arch of two twin brothers with juvenile-onset (insulin-dependent) diabetes mellitus. Fluid volume was immediately determined on a modified Periotron (Model 6000, Harco Electronics Ltd., Winnipeg, Canada); then incubated with 10 μl (^3 H-methyl) collagen (20,675 DPM) and 70 μl buffer (50 mM Tris-HCl, pH 7.8, containing 0.2 M sodium chloride and 5 mM calcium chloride). The GCF samples (or reagent blanks or trypsin controls) were incubated at 27° C. for 18 hours with gentle shaking. The reaction was stopped and undigested collagen precipitated by adding 10 μl 0.1 M phenanthroline in dioxane/water (1:1, v/v), 10 μl of nonradioactive methylated carrier collagen (2 mg/ml) in 50 mM Tris-HCl buffer containing 1M NaCl (pH 7.0), and 100 μl dioxane. After mixing, the radiolabeled collagen degradation products were collected by filtration and counted in a liquid scintillation spectrometer (Golub, et. al., 1976, J. Dent. Res., 55, 1049). Using this technique, the reaction blank (no enzyme or GCF added) released about 10% of the total substrate counts; 2-20 ng bacterial collagenase produced a linear increase in the release of radioactive counts from the ^3 H-collagen substrate (the 20 ng level of enzyme degraded 60% of the collagen substrate); and 50 ng trypsin released less than 1% of the counts above blank values. GCF collagenase activity was expressed as units of equivalent activity of vertebrate collagenase (obtained from New England Nuclear, Cat. No. NEK-016); 1 unit was operationally defined as the amount of enzyme that degrades 1 μg of collagen per hour at 27° C.
[…] PD=4.2 mm±0.3), and GCF collagenolytic activity was measured as described above. […] Two additional GCF samples were collected from the same 4 mm pocket, in this patient, before and after minocycline therapy. These samples were incubated with 10 μl ^3 H-collagen for 18 hours (22° C.), then thermally denatured and the collagen subunits and collagenase digestion products were separated by SDS-polyacrylamide gel electrophoresis (Nicoll, et. al., Experientia., 37, 315-317 (1981)). The gels were processed for fluorography (see Sodek, et. al., J. Periodontal. Res., 16, 425-433 (1981)) and exposed to Kodak X A R-5 film for 3 days.

[2] = during a therapeutic regimen; cited from earlier work
[3] = tested on: conventional diabetic rats; assay: Gingival collagenolytic activity, alveolar bone loss, skin collagen and crevicular microflora in conventional streptozotocin-diabetic rats; assay type: in vivo, rat; conditions: 20 mg per day by gavage
Experimental: Five month old (mean weight, 445g) male Sprague Dawley rats were made diabetic by I.V. injection of streptozotocin (70 mg/kg body weight), after a 12 hour fasting period, (as described by Golub, et al., Biochim. Biophys. Acta., 534, 73-81 (1978) and Golub, et al., Infect. Immun., 37, 1013-1020 (1982). Age matched uninjected rats served as controls. Some of the diabetic rats received the tetracycline, minocycline (20 mg. Minocin® per day; Lederle Laboratories, Pearl River, N.Y.), by gavage on a daily basis beginning 3 days after diabetes is induced. After a 25 day experimental period, blood samples were taken for glucose analysis, and subgingival plaque samples were taken for assessment of the microflora in the region (McNamara, et. al., Archs. Oral. Biol., 27, 217-223 (1982)). The animals were then sacrificed, gingival samples were taken for tissue culture and the jaw bones dissected.
Alveolar bone loss was assessed in the right and left mandibles of both the conventional and germfree rats (control and diabetic) using a modification of a previously described technique (Stralfors, et.al, Archs. Oral. Biol., 12, 1213-1216 (1967); Heijl, et. al., J. Periodontal Res., 15, 405-419 (1980)). The mandibles were defleshed (autoclaving followed by soaking in 2N NaOH for 2-3 h), dried, and the distance (expressed as units; 1 unit=0.05 mm) between the cementoenamel junction (CEJ) and the crest of the alveolar bone is measured in the long axis of the root surface at 10 specified sites on lingual surfaces of the 3 molar teeth (see Crawford, et.al., J. Periodontal Res., 13, 316-325 (1978)) using an eye-piece micrometer in a dissecting microscope (20× magnification).
The techniques used were those described by Schneir and Golub, (Streptozotocin: Fundamentals and Therapy (Ed. M. K. Agarwal, Elsevier/North-Holland Biomed Press, Chapter 12, pp 161-182, (1981)). […]

[4] = tested on: synovial tissue collagenolytic activity; assay: Collagenolytic activity in extracts of synovial tissue from patients with rheumatoid arthritis; assay type: in vivo, human; design: Synovial Tissue Collagenolytic Activity (% C^14-collagen degraded) After Minocycline Treatment / % Reduction by Treatment: concentration or dose not given beside the values
Experimental: In each of three patients, the diseased joint tissue on one side was surgically removed for therapeutic reasons. The three patients were then administered minocycline orally for 10 days and the diseased joint (synovial) tissue on the opposite side was surgically removed (for therapeutic reasons) after the course of minocycline treatment was completed. The tissues were coded, stored frozen, and analyzed double blind to eliminate any bias in the development of the data. The tissues were dried, the lipid removed, and the collagenolytic activity in the diseased joint tissues extracted and concentrated. Aliquots of the extract from each diseased joint were incubated in vitro with radiolabelled collagen fibrils for 72 hours at 37° C. to assess collagen destructive (collagenolytic) enzyme activity.

[5] = GCF from the same 4 mm pocket before and after therapy

CN(C)c1ccc(O)c2c1C[C@H]1C[C@H]3[C@H](N(C)C)C(O)=C(C(N)=O)C(=O)[C@@]3(O)C(O)=C1C2=O [minocycline, Minocycline]
densitometric analysis of fluorographs: degradation products ([1]; GCF before and after therapy): reduced the percentage of the total radiolabeled collagenous material present as degradation products
breakdown of intact ^3 H-collagen by GCF (SDS-PAGE fluorography) [1, 5]: reduced the breakdown of the intact collagen
production of α^A and α^B collagen digestion fragments by GCF (fluorography) [1, 5]: inhibited the production
pocket depth ([1]; non-diabetic patient two): essentially unchanged
reduction of G. I. ([1]; non-diabetic patient two): 26%
reduction of GCF flow ([1]; non-diabetic patient two): 71%
reduction of trypsin-activated collagenase in GCF ([1]; non-diabetic patient two): 59%
reduction of active collagenase in GCF ([1]; non-diabetic patient two, minocycline therapy as in (a)): 86%
concentration in human serum [2]: approximately 2 ug/ml
concentration in the gingival crevicular fluid relative to serum [2]: 4-5 times greater
Gram-negative microflora in the gingival crevices [3]: eliminated detectable signs
alveolar bone loss in the interproximal region [3]: completely reversed
reduction of gingival collagenolytic activity (tissue culture) ([3]; 25 day experimental period): 62%
% Reduction by Treatment ([4]; Patient #1): 81.8%
Synovial Tissue Collagenolytic Activity (% C^14-collagen degraded) After Minocycline Treatment ([4]; Patient #1, oral for 10 days, before treatment 43.0): 7.8%
% Reduction by Treatment ([4]; Patient #2): 68.8%
Synovial Tissue Collagenolytic Activity (% C^14-collagen degraded) After Minocycline Treatment ([4]; Patient #2, oral for 10 days, before treatment 41.0): 12.8%
% Reduction by Treatment ([4]; Patient #3): did not reduce collagenolytic activity much further
Synovial Tissue Collagenolytic Activity (% C^14-collagen degraded) After Minocycline Treatment ([4]; Patient #3, oral for 10 days, before treatment 18.6): 18.0%
% Reduction by Treatment ([4]; Patient #3, listed as Minocycline): 3.3%
reduction of synovial collagenolytic enzyme activity ([4]; patients #1 and 2 (high level of activity)): 69-82%
